Assay results: patent US20100075907A1, “NEUROMEDIN U RECEPTOR AGONISTS AND USES THEREOF” (priority 2006, published 2010)
Starred links: 1 amine or outer side, 2 acyl side, 3 side chain; linkers in the order of their positions; H or OH if unused. Non-standard residues stand in square brackets, D forms with d. Residues, ends and D or L forms follow the SMILES beside them. No end group written: not given here. *: point of attachment. X2 = CCN1C(=O)CC(SC[C@H](NC(C)=O)C(=O)NCCCOCCOCCOCCCN*)C1=O; Succinimide(1-Et,3-yl) = CCN1C(=O)CC(*)C1=O; Palmitoyl = CCCCCCCCCCCCCCCC(=O)*; Suc = O=C(CCC(=O)[*:2])[*:1]

Molecular target: T1, mouse NMUR1-ATG (Mus musculus, UniProt O55040)
T1 sequence (O55040 1-428): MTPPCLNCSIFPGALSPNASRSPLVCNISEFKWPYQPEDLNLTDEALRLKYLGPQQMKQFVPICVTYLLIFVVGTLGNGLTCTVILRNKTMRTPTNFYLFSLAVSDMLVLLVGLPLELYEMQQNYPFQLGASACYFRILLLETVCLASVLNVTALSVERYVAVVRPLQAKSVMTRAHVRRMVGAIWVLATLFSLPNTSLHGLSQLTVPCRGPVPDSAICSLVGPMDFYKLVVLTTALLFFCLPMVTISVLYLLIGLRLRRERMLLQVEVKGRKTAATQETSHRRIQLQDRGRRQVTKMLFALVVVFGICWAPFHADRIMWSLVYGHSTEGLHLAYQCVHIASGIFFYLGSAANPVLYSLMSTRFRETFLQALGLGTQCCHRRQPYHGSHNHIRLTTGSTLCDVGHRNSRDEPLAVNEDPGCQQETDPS
Assay: FLIPR calcium mobilization assay, mouse NMUR1-ATG
Format: cell-based
Set-up: expressed in transfected cells; host or cells: FLP-In CHO or HEK-293 FLP-In cells (pcDNA5)
Details: for EC50: FLIPR
Excerpt: Human, mouse or rat cDNAs encoding NMUR1 or NMUR2 (as described in Howard et al. Nature 406: 70-74 (2000) were subcloned in pcDNA5 (Invitrogen) and transfected into FLP-In CHO cells and HEK-293 FLP-In cells purchased from Invitrogen (Carlsbad, Calif.) using lipofectamine (Invitrogen). The Flp-In system allows integration and expression of a particular gene of interest at a specific genomic location utilizing the Flp recombinase from yeast. The transfected cells were selected by growth in medium containing 200 μg/mL hygromycin (Invitrogen). Populations were frozen at early passage numbers, and these stocks were used for further studies. Stable clones that expressed the mRNAs were identified functionally by FLIPR as well as by RT-PCR. […] Two different rodent NMUR1 cell lines were thus generated: one with the codon as predicted from the genomic databases and another cell line with an engineered methionine (ATG) as the start codon. Additionally, stable cell lines expressing the human receptors were generated in HEK-293/aeq17 cells which stably express the aequorin gene under the CMV promoter. The human NMUR2 cDNA was cloned into pcDNA3.1 and human NMUR1 was subcloned into pIRES-puro (Clontech, Mountain View, Calif.), after transfection cells were selected in media containing G418 and either hygromycin (NMUR2) or puromycin (NMUR1).
The NMU receptors signal primarily through Gαq/11 proteins; therefore calcium mobilization assays can be utilized for functional activity.
Stable cell lines expressing human and or rodent NMUR1 or human NMUR2 receptors were plated at a density of 12,000 cells per well overnight on poly-lysine coated 384-well black-walled plates. The following day, the media was removed from the plates and the cells were subsequently loaded with Fluo-3 (Molecular Probes), a calcium sensitive dye, diluted in FLIPR buffer (1× Hank's buffered saline containing 20 mM HEPES, 0.1% BSA, 2.5 mM probenecid (Sigma) and 1.6 mM TR40). All reagents are from Invitrogen unless otherwise noted. Peptide stocks were resuspended in DMSO at a stock concentration of 2 mM and diluted in FLIPR buffer on the day of the experiment to a 4 μM working stock solution.
After a 90 minute incubation at room-temperature, cell plates were loaded onto a FLIPR (Molecular Devices) to monitor cellular fluorescence (excitation=488 nm; emission=540 nm) before and after compound/peptide addition. Eight to twelve point dose responses were tested on NMUR-expressing cell lines using FLIPR with 1 μM peptide as the highest dose. The response after peptide addition was taken as the maximum fluorescence units minus the fluorescence immediately prior to stimulation for each well. EC50 values were calculated using GraphPad Prism (San Diego, Calif.) software.
In vitro responses of Neuromedin U receptor agonists (NMU1 to NMU25) in the FLIPR assay for human (Table 3), mouse (Table 4) and rat (Table 5) NMUR1 and NMUR2. EC50s are reported in nM values. Percent activity refers to the maximum response at 1 μM compared to the hNMU-25 response at the same concentration. NT=not tested.

[1] = maximum response at 1 μM compared to hNMU-25, mouse NMUR1-ATG

Row | % Activity [1] [%] | EC50 (mouse NMUR1-ATG) [nM] | Compound | % Activity (functional, mouse R1-ATG, relative to native hNMU responses) [%]
1 | – | 14 | Ac-C4-C4-FRVDEEFQSPFASQSRGYFLFRPRN-CONH2 ({Ac-C(PEG 20 kDa)-C(PEG 20 kDa)}-FRVDEEFQSPFASQSRGYFLFRPRN-NH2) [NMU23, C4 = Cys(PEG)20 kDa] | –
2 | 100 | – | CCN1C(=O)CC(SC[C@H](NC(C)=O)C(=O)N[C@@H](Cc2ccccc2)C(=O)N[C@@H](CCC(N)=O)C(=O)N[C@@H](CO)C(=O)N2CCC[C@H]2C(=O)N[C@@H](Cc2ccccc2)C(=O)N[C@@H](C)C(=O)N[C@@H](CO)C(=O)N[C@@H](CCC(N)=O)C(=O)N[C@@H](CO)C(=O)N[C@@H](CCCNC(=N)N)C(=O)NCC(=O)N[C@@H](Cc2ccc(O)cc2)C(=O)N[C@@H](Cc2ccccc2)C(=O)N[C@@H](CC(C)C)C(=O)N[C@@H](Cc2ccccc2)C(=O)N[C@@H](CCCNC(=N)N)C(=O)N2CCC[C@H]2C(=O)N[C@@H](CCCNC(=N)N)C(=O)N[C@@H](CC(N)=O)C(N)=O)C1=O (stereo partly drawn) [NMU19] (Ac-C(Succinimide(1-Et,3-yl))FQSPFASQSRGYFLFRPRN-NH2) | –
3 | 100 | – | CCN1C(=O)CC(SC[C@H](NC(C)=O)C(=O)N[C@@H](CSC2CC(=O)N(CC)C2=O)C(=O)N[C@@H](Cc2ccccc2)C(=O)N[C@@H](CCCNC(=N)N)C(=O)N[C@H](C(=O)N[C@@H](CC(=O)O)C(=O)N[C@@H](CCC(=O)O)C(=O)N[C@@H](CCC(=O)O)C(=O)N[C@@H](Cc2ccccc2)C(=O)N[C@@H](CCC(N)=O)C(=O)N[C@@H](CO)C(=O)N2CCC[C@H]2C(=O)N[C@@H](Cc2ccccc2)C(=O)N[C@@H](C)C(=O)N[C@@H](CO)C(=O)N[C@@H](CCC(N)=O)C(=O)N[C@@H](CO)C(=O)N[C@@H](CCCNC(=N)N)C(=O)NCC(=O)N[C@@H](Cc2ccc(O)cc2)C(=O)N[C@@H](Cc2ccccc2)C(=O)N[C@@H](CC(C)C)C(=O)N[C@@H](Cc2ccccc2)C(=O)N[C@@H](CCCNC(=N)N)C(=O)N2CCC[C@H]2C(=O)N[C@@H](CCCNC(=N)N)C(=O)N[C@@H](CC(N)=O)C(N)=O)C(C)C)C1=O (stereo partly drawn) [NMU22] (Ac-C(Succinimide(1-Et,3-yl))C(Succinimide(1-Et,3-yl))FRVDEEFQSPFASQSRGYFLFRPRN-NH2) | –
4 | – | 9.1 | Ac-C4FRVDEEFQSPFASQSRGYFLFRPRN-CONH2 ({Ac-C(PEG 20 kDa)}-FRVDEEFQSPFASQSRGYFLFRPRN-NH2) [NMU21, C4 = Cys(PEG)20 kDa] | –
5 | 81.4 | – | CCCCCCCCCCCCCCCC(=O)N[C@@H](CSC1CC(=O)N(CC)C1=O)C(=O)N[C@@H](Cc1ccccc1)C(=O)N[C@@H](CCCNC(=N)N)C(=O)N[C@H](C(=O)N[C@@H](CC(=O)O)C(=O)N[C@@H](CCC(=O)O)C(=O)N[C@@H](CCC(=O)O)C(=O)N[C@@H](Cc1ccccc1)C(=O)N[C@@H](CCC(N)=O)C(=O)N[C@@H](CO)C(=O)N1CCC[C@H]1C(=O)N[C@@H](Cc1ccccc1)C(=O)N[C@@H](C)C(=O)N[C@@H](CO)C(=O)N[C@@H](CCC(N)=O)C(=O)N[C@@H](CO)C(=O)N[C@@H](CCCNC(=N)N)C(=O)NCC(=O)N[C@@H](Cc1ccc(O)cc1)C(=O)N[C@@H](Cc1ccccc1)C(=O)N[C@@H](CC(C)C)C(=O)N[C@@H](Cc1ccccc1)C(=O)N[C@@H](CCCNC(=N)N)C(=O)N1CCC[C@H]1C(=O)N[C@@H](CCCNC(=N)N)C(=O)N[C@@H](CC(N)=O)C(N)=O)C(C)C (stereo partly drawn) [NMU24] (Palmitoyl-C(Succinimide(1-Et,3-yl))FRVDEEFQSPFASQSRGYFLFRPRN-NH2) | –
6 | 100 | – | CCN1C(=O)CC(SC[C@H](NC(C)=O)C(=O)N[C@@H](C)C(=O)N[C@@H](CO)C(=O)N[C@@H](CCC(N)=O)C(=O)N[C@@H](CO)C(=O)N[C@@H](CCCNC(=N)N)C(=O)NCC(=O)N[C@@H](Cc2ccc(O)cc2)C(=O)N[C@@H](Cc2ccccc2)C(=O)N[C@@H](CC(C)C)C(=O)N[C@@H](Cc2ccccc2)C(=O)N[C@@H](CCCNC(=N)N)C(=O)N2CCC[C@H]2C(=O)N[C@@H](CCCNC(=N)N)C(=O)N[C@@H](CC(N)=O)C(N)=O)C1=O (stereo partly drawn) [NMU17] (Ac-C(Succinimide(1-Et,3-yl))ASQSRGYFLFRPRN-NH2) | –
7 | – | 12.7 | Ac-C2FQSPFASQSRGYFLFRPRN-CONH2 ({Ac-C(PEG 40 kDa)}-FQSPFASQSRGYFLFRPRN-NH2; not fully specified; printed as Ac-C2FQSPFASQSRGYFLFRPRN-CONH2) [NMU20, C2 = Cys(PEG)240 kDa] | –
8 | – | 10.2 | Pam-C2FRVDEEFQSPFASQSRGYFLFRPRN-CONH2 ({Palmitoyl-C(PEG 40 kDa)}-FRVDEEFQSPFASQSRGYFLFRPRN-NH2) [NMU25, Pam = palmitoyl; C2 = Cys(PEG)240 kDa] | –

The next lines start with the compound.

Row | Compound | % Activity [1] [%] | EC50 (mouse NMUR1-ATG) [nM] | % Activity (functional, mouse R1-ATG, relative to native hNMU responses) [%]
9 | CCN1C(=O)CC(SC[C@H](NC(C)=O)C(=O)N[C@@H](Cc2ccccc2)C(=O)N[C@@H](CCCNC(=N)N)C(=O)N[C@H](C(=O)N[C@@H](CC(=O)O)C(=O)N[C@@H](CCC(=O)O)C(=O)N[C@@H](CCC(=O)O)C(=O)N[C@@H](Cc2ccccc2)C(=O)N[C@@H](CCC(N)=O)C(=O)N[C@@H](CO)C(=O)N2CCC[C@H]2C(=O)N[C@@H](Cc2ccccc2)C(=O)N[C@@H](C)C(=O)N[C@@H](CO)C(=O)N[C@@H](CCC(N)=O)C(=O)N[C@@H](CO)C(=O)N[C@@H](CCCNC(=N)N)C(=O)NCC(=O)N[C@@H](Cc2ccc(O)cc2)C(=O)N[C@@H](Cc2ccccc2)C(=O)N[C@H](C)C(=O)N[C@@H](Cc2c[nH]c3ccccc23)C(=O)N[C@@H](CCCNC(=N)N)C(=O)N2CCC[C@H]2C(=O)N[C@@H](CCCNC(=N)N)C(=O)N[C@@H](CC(N)=O)C(N)=O)C(C)C)C1=O (stereo partly drawn) [NMU13] (Ac-C(Succinimide(1-Et,3-yl))FRVDEEFQSPFASQSRGYF[dA]WRPRN-NH2) | 98.6 | – | 96
10 | Ac-FRVDEEFQSPFASQSRPYFLFRPRN-NH2 [NMU5] | 100 | – | –
11 | Ac-FRVDEEFQSPFASQSRGYFLFRPRN-NH2 [NMU2] | 100 | – | –
12 | CCN1C(=O)CC(SC[C@H](NC(C)=O)C(=O)NCC(=O)N[C@@H](Cc2ccc(O)cc2)C(=O)N[C@@H](Cc2ccccc2)C(=O)N[C@@H](CC(C)C)C(=O)N[C@@H](Cc2ccccc2)C(=O)N[C@@H](CCCNC(=N)N)C(=O)N2CCC[C@H]2C(=O)N[C@@H](CCCNC(=N)N)C(=O)N[C@@H](CC(N)=O)C(N)=O)C1=O (stereo partly drawn) [NMU6] (Ac-C(Succinimide(1-Et,3-yl))GYFLFRPRN-NH2) | 100 | – | –
13 | H-FRVDEEFQSPFASQSRPYFLFRPRN-NH2 [NMU4] | 100 | – | –
14 | GYFLFRPRN-NH2 [NMU3] | 100 | – | –
15 | Ac-C2FRVDEEFQSPFASQSRGYFLFRPRN-CONH2 [NMU9] ({Ac-C(PEG 40 kDa)}-FRVDEEFQSPFASQSRGYFLFRPRN-NH2) [C2 = Cys(PEG)240 kDa from Nektar (mPEG2-MAL-40 k)] | 95.0 | 45.7 | –
16 | CCN1C(=O)CC(SC[C@H](NC(C)=O)C(=O)NCCCOCCOCCOCCCNC(=O)CCC(=O)N[C@@H](Cc2ccccc2)C(=O)N[C@@H](CC(C)C)C(=O)N[C@@H](Cc2ccccc2)C(=O)N[C@@H](CCCNC(=N)N)C(=O)N2CCC[C@H]2C(=O)N[C@@H](CCCNC(=N)N)C(=O)N[C@@H](CC(N)=O)C(N)=O)C1=O (stereo partly drawn) [NMU15, Ac-C1-Ttds-FLFRPRN-CONH2] ({X2-Suc}-FLFRPRN-NH2) | 100 | – | –
